From patent US8258140B2 (Astrazeneca AB, priority 2009, dated 2012)

The compounds below were run against T1, isolated rat AR-LBD (Rattus norvegicus, UniProt P15207) (assay: Androgen Receptor Ligand Binding Domain Competitive Binding Assay (fluorescence polarisation, PolarScreen)). Conditions: FP, 12 nM AR-LBD, 2 nM fluormone, 4-6 hours at room temperature, 50% reduction in tracer binding; read-out: Androgen Receptor Ligand Binding Domain Competitive Binding Assay (b) IC50/μM.
T1 construct: purchased Invitrogen PV4293
T1 sequence (P15207 651-882 limits assumed): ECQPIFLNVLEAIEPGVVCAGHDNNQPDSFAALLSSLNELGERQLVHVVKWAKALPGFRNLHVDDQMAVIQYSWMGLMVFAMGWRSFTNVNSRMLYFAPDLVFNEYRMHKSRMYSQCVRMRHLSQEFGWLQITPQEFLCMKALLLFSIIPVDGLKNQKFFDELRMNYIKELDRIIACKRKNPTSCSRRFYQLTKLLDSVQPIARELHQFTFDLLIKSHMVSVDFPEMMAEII
Method: The ability of compounds to bind to isolated Androgen Receptor Ligand binding domain (AR-LBD) was assessed in competition assays using a Fluorescence Polarisation (FP) detection end-point.
For the FP test, an assay test kit was purchased from Invitrogen and used to measure compound binding to the isolated rat AR-LBD which shares 100% sequence identity to the human AR-LBD. The Invitrogen PolarScreen™ Androgen Receptor Competitor Assay Red (Product Code No. PV4293), is a fluorescence polarisation (FP)—based competition assay which measures if test compound can displace a fluorescently-labelled tracer compound. If the test compound binds to the AR-LBD it will prevent the formation of the receptor/tracer complex, which will result in a low polarisation value.
The assay was performed as follows with all reagent additions carried out using the Thermo Scientific Matrix PlateMate: • 1. Acoustic dispense 120 nl of the test compound into a black low volume 384 well assay plates. • 2. Volumes of reagents are added to give the following final concentrations of assay components:—0.5 mM DTT, 2 nM fluormone, 12 nM AR-LBD in the Invitrogen Assay Buffer • 3. Dispense 15 μl of the assay mix into each well of the assay plate • 4. Cover the assay plate to protect the reagents from light and evaporation, and incubate at room temperature for 4-6 hours. • 5. Excite at […] and measure the fluorescent emission signal of each well at 590 nm in FP mode using the BMG PheraSTAR or other suitable plate reader.
Compounds were dosed directly from a compound source microplate containing serially diluted compound (4 wells containing 10 mM, 0.1 mM, 1 μM and 10 nM final compound respectively) to an assay microplate using an Labcyte Echo 550. The Echo 550 is a liquid handler that uses acoustic technology to perform direct microplate-to-microplate transfers of DMSO compound solutions and the system can be programmed to transfer multiple small nL volumes of compound from the different source plate wells to give the desired serial dilution of compound in the assay which is then back-filled to normalise the DMSO concentration across the dilution range. In total 120 nL of compound plus DMSO was added to each well and compounds tested in a 12-point concentration response format over a final compound concentration range of 100, 30, 10, 3, 1, 0.3, 0.1, 0.03, 0.01, 0.003, 0.001, 0.0001 μM, respectively.
FP dose response data obtained with each compound was exported into a suitable software package (such as Origin) to perform curve fitting analysis. Competitive AR binding may be expressed as an IC50 value. This is determined by calculation of the concentration of compound that is required to give a 50% reduction in tracer compound binding to AR-LBD.

| IC50 | SMILES |
| --- | --- |
| 61.9 µM | CN1CCN(CCOc2ccc(C3CCN(C4=Nn5c(nnc5C(F)(F)F)CC4)CC3)cc2)CC1=O [Example 37, 1-methyl-4-[2-(4-{1-[3-(trifluoromethyl)-7,8-dihydro[1,2,4]triazolo[4,3-b]pyridazin-6-yl]piperidin-4-yl}phenoxy)ethyl]piperazin-2-one] |
| 23.8 µM | CC(=O)N1CCN(CCCOc2ccc(C3CCN(C4=Nn5c(nnc5C(F)(F)F)CC4)CC3)cc2)CC1 [Example 4.1, 6-[4-[4-[3-(4-acetylpiperazin-1-yl)propoxy]phenyl]piperidin-1-yl]-3-(trifluoromethyl)-7,8-dihydro[1,2,4]triazolo[4,3-b]pyridazine] |
| 30.3 µM | CC(=O)N1CCN(CCOc2ccc(C3CCN(C4=Nn5c(nnc5C(F)(F)F)CC4)CC3)cc2)C[C@H]1C [Example 51, 6-[4-(4-{2-[(3R)-4-acetyl-3-methylpiperazin-1-yl]ethoxy}phenyl)piperidin-1-yl]-3-(trifluoromethyl)-7,8-dihydro[1,2,4]triazolo[4,3-b]pyridazine] |
| 22.9 µM | CC(=O)N1CCN(CCOc2ccc(C3CCN(C4=Nn5c(nnc5C(F)(F)F)CC4)CC3)cc2)CC1 [Example 5.1, 6-(4-{4-[2-(4-acetylpiperazin-1-yl)ethoxy]phenyl}piperidin-1-yl)-3-(trifluoromethyl)-7,8-dihydro[1,2,4]triazolo[4,3-b]pyridazine] |
